Columns and labels:
[1] = tested on: zebrafish larvae; assay: Toxicity test: three-day treatment of fish larvae without injection of tumor cells; format: in vivo, zebrafish (Danio rerio); settings: three-day incubation time at 34 °C, drug in buffer
Experimental: (§1) For treatment, larvae were incubated in freshly prepared buffer solution supplemented with 0.2 mM PTU, containing the drug of interest at increasing concentrations. Drug-containing solutions were administered at the beginning of the experiment and were not replaced during the incubation period. Solvent control was applied in the same manner as the drug treatments.

[2] = tested on: xenografted tumor cells; assay: Dose response in zebrafish xenografts: relative IC50 from the change in tumor volume; format: in vivo, human; settings: Danio rerio, compared to solvent, drug applied to surrounding water, n = 3–5 fish per concentration
Experimental: (§2) To determine optimal drug concentrations, larvae bearing xenografted tumor cells were incubated with increasing drug concentrations 24 h post implantation (hpi), ranging from the concentrations used in previous cell culture experiments to the MTD(larvae) (Figure 2a). […] Using these concentrations, we evaluated whether HDACis were able to reach their specific enzymatic targets.
(§3) Right: representative images of immunohistochemical staining (c) Left: quantification of staining for acetylated histone H3. Right: representative images of immunohistochemical staining.
as §1

[3] = tested on: cleaved caspase-3; assay: IHC staining for cleaved caspase-3 in SK-N-BE(2)-C zebrafish xenografts; format: in vivo, human; settings: 48 h exposure, compared to solvent-treated control
Experimental: (§4) Due to this relatively short treatment duration (48 h), the apoptosis induction of the combination therapy is predominant over the antiproliferative effect.
(§5) Left panel: representative images of sections stained against cleaved caspase-3. […] The number of positive cells was calculated as the ratio of positive to total cells counted, relative to solvent. […] (b) Left panel: representative images of sections stained against phospho-histone H3, a marker specific for cells undergoing mitosis. […] The number of positive cells (%) was calculated as the ratio of positive to total cells counted.
(§6) Following fixation (24 h at 4 °C) in Special Fixative for Anatomy and Histology (Morphisto, Frankfurt am Main, Germany), xenografted zebrafish larvae were transferred to embedding cassettes equipped with biopsy pads, dehydrated, and infiltrated with paraffin. […] FIJI software and a macro program were employed for quantitative analysis of the xenograft slides, while the analysis of slides obtained from neuroblastoma patients was carried out manually. All quantitative analyses were performed in a blinded fashion on the xenograft slides (five tissue sections per zebrafish larva), which were obtained from at least two xenotransplantation replicates.

[4] = tested on: phospho-histone H3; assay: IHC staining for phospho-histone H3 (pHH3) in SK-N-BE(2)-C zebrafish xenografts; format: in vivo, human; settings: 48 h exposure; solvent-treated 47%
Experimental: as §4, §5, §6

[5] = tested on: acetylated α-tubulin (substrate of HDAC6); assay: IHC staining for acetylated α-tubulin in SK-N-BE(2)-C zebrafish xenografts; format: in vivo, human; settings: 50 µM, 48 h, SK-N-BE(2)-C xenografts, versus solvent
Experimental: as §2, §3
(§7) Following fixation (24 h at 4 °C) in Special Fixative for Anatomy and Histology (Morphisto, Frankfurt am Main, Germany), xenografted zebrafish larvae were transferred to embedding cassettes equipped with biopsy pads, dehydrated, and infiltrated with paraffin. Briefly, fixed larvae were dehydrated using Leica ASP300S tissue processor (Leica Biosystems, Wetzlar, Germany) through incubation in aqueous solutions of increasing ethanol concentration (1 h in 50% ethanol, 2 h in 70% ethanol, 2 h in 80% ethanol, 1 h in 96% ethanol, 3 h in absolute ethanol) and thereafter incubated with xylene for 5 h. Next, samples were transferred to liquid paraffin at 60 °C and allowed to infiltrate for 5 h.

[6] = tested on: acetylated histone H3 (substrate of HDAC1–3); assay: IHC staining for acetylated histone H3 in SK-N-BE(2)-C zebrafish xenografts; format: in vivo, human; settings: 48 h exposure at IC50 concentrations (tubastatin A 50 µM), SK-N-BE(2)-C xenografts
Experimental: as §2, §3, §7

[7] = tested on: SK-N-BE(2)-C cells; assay: Doxorubicin accumulation in engrafted tumor cells and zebrafish tissues; format: in vivo, human; settings: tubastatin A 50 µM with doxorubicin 110 ng/mL, 48 h, relative to doxorubicin alone
Experimental: Doxorubicin has an intrinsic fluorescence due to the presence of a hydroxy-substituted anthraquinone chromophore.
(b,c) Representative images (b) and quantification (c) of zebrafish larvae engrafted with Hoechst stained and doxorubicin-treated SK-N-BE(2)-C cells. Larvae, except of unstained larvae, were exposed for 48 h to doxorubicin (red fluorescence) and tubastatin A or solvent. Red fluorescence of doxorubicin was visualized by confocal microscopy and normalized to tumor area. Results are presented as log2 fold change (FC) relative to doxorubicin alone. […] One-way ANOVA with Tukey’s multiple comparison test, scale bar = 50 µm.
SK-N-BE(2)-C cells were incubated with Hoechst nucleic acid dye (Thermo Fisher Scientific) at a concentration of 10 µg/mL for 30 min at 37 °C. […]
Zebrafish larvae engrafted with Hoechst-stained SK-N-BE(2)-C cells were exposed to solvent, doxorubicin, or doxorubicin combined with tubastatin A for 48 h. Red fluorescence of doxorubicin was visualized by confocal microscopy. Doxorubicin has an intrinsic fluorescence due to the presence of a hydroxy-substituted anthraquinone chromophore, with typical excitation and emission maxima in the range of 500 nm and 552–585 nm, respectively. Total fluorescence intensity in the tumor area (determined by nuclear staining) was defined as that above the threshold set by the solvent group and was quantified using a macro program.

Row | Compound | Maximum Tolerated Dose (MTD) [1] | IC50 ([2]; 48 h treatment) [µg/mL] | number of cells positive for cleaved caspase-3 [3] | average number of tumor cells per slide positive for pHH3 [4] [%] | IC50 ([2]; 48 h treatment from 24 hpi) [µM] | increase of acetylated α-tubulin [5] [fold] | cells stained positive for ac-histone H3 [6] | doxorubicin accumulation in zebrafish tissues and engrafted tumor cells [7]
1 | COc1cccc2c1C(=O)c1c(O)c3c(c(O)c1C2=O)C[C@@](O)(C(=O)CO)C[C@@H]3O[C@H]1C[C@H](N)[C@H](O)[C@H](C)O1 [doxorubicin] | 500 ng/mL | 0.11 | increased | 38 |  |  |  | 
2 | Cc1[nH]c2ccccc2c1CCNCc1ccc(/C=C/C(=O)NO)cc1 [panobinostat] | 1 µM |  |  |  | 0.2 |  |  | 
3 | CN1CCc2c(c3ccccc3n2Cc2ccc(C(=O)NO)cc2)C1 [tubastatin A] | 200 µM |  |  |  | 50 | 5 | not acetylated H3 | increased
4 | O=C(CCCCCCC(=O)Nc1ccccc1)NO [vorinostat] | 100 µM |  | increased | 30 |  |  |  | 
